US12540164B2, “Peptides for treatment and prevention of nonalcoholic fatty liver disease and fibrosis” (UNIVERSITE DE STRASBOURG, priority 2017, dated 2026)
“Also recorded” adds a separate entry of the source. Ends that are not written are not given here.

Tests used:
hepatic lipid droplets = assay: AdipoRed staining of liver sections (lipid droplets); type: in vivo; settings: 3 months after one unique injection in adipose tissue; DIO male mice; AdipoRed/DAPI cryosections
Method: (§1) Mice presented were euthanized and their plasma and organs were sampled for analysis. […] Cryosection of the livers were then stained with Adipored and DAPI to detect the level of lipid droplets. […] Hepatic function is assessed by two liver related strong biomarkers namely (AST (Aspartate Aminotransferase) and ALT (Alanine Aminotransferase)), whose levels increase proportionately with liver damage.
Livers were isolated and briefly washed in PBS buffer (pH 7.4). after weighing the dried liver, for the liver to body weight ratio, a sliced sample of the liver were then placed in 4% paraformaldehyde (in 0.1M sodium phosphate buffer, pH 7.2) for 15 min, washed in PBS and incubated in AdipoRed dye (1/25; Lonza, Switzerland) with 30 μM DAPI (Sigma-Aldrich, USA) for 15 minutes. After 3 washes with PBS samples were mounted on slides and pictures were taken using Zeiss microscope.

Collagen IV [1] = assay: Immunostaining of liver cryosections for Collagen IV (DIO-NASH); type: in vivo; settings: DIO-NASH mice, 3 months after injection in subcutaneous adipose tissue; vs untreated
Method: (§2) For immunofluorescence experiments, liver and kidneys freshly sampled were included in Optimal Cutting Temperature Compound™ (OCT™, Catalog #4583, Tissue-Tek® OCT™, Sakura® Finetek, Torrance, California, USA) and cryosections of 7 μm were cut with Cryostat Leica CM1950. Cryosections were washed with 1×PBS and fixated in 4% formaldehyde solution for 15 min (Catalog #: F555-4L, Sigma-Aldrich, Saint-Louis, Missouri, USA) and then permeabilized with 0.02% SDS-PBS for 30 seconds. Blocking solution was 5%-Bovine Serum Albumin (BSA) in PBS. Primary antibodies were diluted in blocking solution and incubated overnight and indicated secondary antibodies were diluted in PBS for 30 minutes. Nuclei were counterstained with Hoechst (Catalog #: D1306, Invitrogen, Carlsbad, California, USA). Slides were then mounted with Vectashield® Mounting Medium (Catalog #: H-1000, Vector Laboratories, Burlingame, California, USA). Images were acquired and analyzed with Zeiss Imager.Z2 microscope equipped with either Zeiss AxioVision or Zeiss ZEN 2012 software (Carl Zeiss Inc., Oberkochen, Germany). Anti-Collagen IV antibody, ab6586 from Abcam and LOXL2 antibody, GTX105085 from GeneTex were used.

[2] = tested on: ALT (alanine aminotransferase); assay: Plasma ALT ELISA; type: in vivo, mice; settings: 3 months after a single subcutaneous peptide injection, n=4
Method: as §1
Plasma samples from the indicated mice were used to determine plasma content of either AST (aspartate aminotransferase) or […] (alanine aminotransferase) both robust indicators of liver damage were measured using commercially purchased ELISA kits. These parameters were determined according to manufacturer's procedure. • SEB214Mu (96 Tests): Enzyme-linked Immunosorbent Assay Kit For Aspartate Aminotransferase (AST), Cloud Clone Corp. • SEA207Mu (96 Tests): Enzyme-linked Immunosorbent Assay Kit For Alanine Aminotransferase (ALT), Cloud Clone Corp.

[3] = STAM model of non-alcoholic steatohepatitis: liver triglyceride content; type: in vivo; settings: STAM NASH mice
Method: NASH was induced in 12 male mice by a single subcutaneous injection of 200 μg streptozotocin (STZ, Sigma-Aldrich, USA) solution 2 days after birth and feeding with high fat diet (HFD, 57 kcal % fat, Cat #HFD32, CLEA Japan, Inc., Japan) after 4 weeks of age.
The peptide was administered subcutaneously in the adipose tissue in a volume of […] per mouse.
The peptide was administered at a dose of 25 microgram (μg) per mouse once weekly.
Liver total lipid-extracts were obtained by Folch's method (Folch J. et al., J. Biol. Chem. 1957; 226: 497). Liver samples were homogenized in chloroform-methanol (2:1, v/v) and incubated overnight at room temperature. After washing with chloroform-methanol-water (8:4:3, v/v/v), the extracts were evaporated to dryness, and dissolved in isopropanol. Liver triglyceride content was measured by Triglyceride E-test (Wako Pure Chemical Industries, Ltd., Japan).
Six NASH mice were subcutaneously in the adipose tissue administered vehicle supplemented with ADPIF peptide at a dose of […] per mouse once weekly from 4 to 9 weeks of age.

Collagen IV [4] = assay: Immunostaining of kidney cryosections for Collagen IV; type: in vivo; settings: DIO(-NASH) mice 3 months post treatment; vs vehicle
From the text: as §2, with “Cryosections of kidneys from DIO vehicle treated and DIO ADPIF treated mice 3 months post treatment, were immunostained for collage IV deposition and tight junction with a ZO-1 antibody to assess the effect of ADPIF peptide on fibrosis progression in other soft tissues. For” for “For”, “Anti-Collagen IV antibody, ab6586 from Abcam and LOXL2 antibody, GTX105085 from GeneTex were used.” left out

[5] = Glucose tolerance test (GTT) in diet induced obese mice; type: in vivo; settings: fasting male DIO mice, single injection at day 0; subcutaneous glucose bolus; AUC D-5 vs D+6
Method: These are results obtained from series of glucose tolerance test (GTT) and data from two-time points namely 30 minutes and 120 minutes were used to generate these curves for both control and PATAD treated diet induced obese (DIO) and diabetic wild type male C57/B6 mice (control).
For this study, mice were on a C57/BL6 genetic background. All animals were housed in a temperature and humidity controlled facility, with a 12 h-light/12 h-dark cycle fed during the whole phase mice will be fed with a 60% high fat diet from Research Diets (D12492), and tap water will be provided ad libitum. Mice were fed and tested regularly for glucose tolerance test for their glucose tolerance and once they were glucose intolerant they were used for treatment.

[6] = tested on: fatty acid synthase (Fasn); assay: Hepatic expression of de novo lipogenesis gene Fasn (q-PCR); type: in vivo; settings: 11 days post injection in the adipose tissue; DIO male mice; vs control
From the text: AdipoRed Staining of Liver Sections

Sequence: VECTTREKEVLASLDKAAFLTQLHS (not fully specified (bridges)) [ADPIF, R and S carry the stapling, preferably 2-(7-octenyl)arginine and 2-(4-pentenyl)serine]
- size of the hepatic lipid droplets (hepatic lipid droplets): clearly showed a decrease; also recorded: global decrease in the sizes of the lipid droplets; also recorded: decrease in the diameter of the lipid droplets
- Collagen IV expression in liver (immunostaining) (Collagen IV [1]): effective in preventing the progression of fibrotic markers; also recorded: reduced
- circulating levels of ALT [2]: dramatic decrease; also recorded: more active in reducing circulating levels of ALT
- Liver triglyceride (mean ± SD) ([3]; 25 μg per mouse SC once weekly 4-9 wks of age, sacrifice 9 wks, n = 6): 35.1 ± 17.8 mg/g liver
- liver triglyceride content compared with the Vehicle group ([3]; 25 μg per mouse SC once weekly 4-9 wks, Student's t-test): significant decrease
- Collagen IV depots in the kidney (immunostaining) (Collagen IV [4]): clear reduction; also recorded: More depots of Collagen IV are observed in the DIO-NASH vehicle than in the ADPIF treated
- glucose tolerance test / prevention of hyperglycemia [5]: better effect in glucose tolerance test than the PATAD peptide; also recorded: more active than PATAD peptide in preventing hyperglycemia
- hepatic expression level of fatty acid synthase (Fasn) [6]: repressed; also recorded: significantly decreased
